Assay results reported in patent EP2578599A1 (LanthioPep B.V., priority 2011, dated 2013).

How the values were obtained:
carboxypeptidase Y (cpY) = carboxypeptidase Y (cpY) (Saccharomyces cerevisiae, UniProt P00729); assay: Proteolytic resistance: incubation of peptide conformations with carboxypeptidase Y; assay type: in vitro ADME; conditions: HPLC peaks of nisin leader - GLP-1 fragment (29-36) peptide treated with cpY
Description: Production of peptide in Lactococcus lactis and characterization of the peptide were performed as described in Plat et al. (Polymers 2011, 3, 1282-1296).
(§1) After overnight incubation of the purified peptide containing a lysinoalanine at RT in 0.25 % ammonia (w/v) the sample was applied on a C18 column (Alltech, alltima analytical C18 column 5 µm). Peaks were collected and analyzed by mass spectrometry. Different conformations of the peptide were incubated with trypsin and cpY (Figure 2).

trypsin = assay: Proteolytic resistance: incubation of peptide conformations with trypsin; assay type: in vitro ADME
Description: as §1, with “Production of peptide in Lactococcus lactis and characterization of the peptide were performed as described in Plat et al. (Polymers 2011, 3, 1282-1296). […] After inducing dehydration the peptide was harvested from the medium and characterized. After” for “After”, “([…]” for “(Alltech, alltima”, “μm).” for “µm).”

Chain of carboxypeptidase Y (cpY) (P00729 112-532): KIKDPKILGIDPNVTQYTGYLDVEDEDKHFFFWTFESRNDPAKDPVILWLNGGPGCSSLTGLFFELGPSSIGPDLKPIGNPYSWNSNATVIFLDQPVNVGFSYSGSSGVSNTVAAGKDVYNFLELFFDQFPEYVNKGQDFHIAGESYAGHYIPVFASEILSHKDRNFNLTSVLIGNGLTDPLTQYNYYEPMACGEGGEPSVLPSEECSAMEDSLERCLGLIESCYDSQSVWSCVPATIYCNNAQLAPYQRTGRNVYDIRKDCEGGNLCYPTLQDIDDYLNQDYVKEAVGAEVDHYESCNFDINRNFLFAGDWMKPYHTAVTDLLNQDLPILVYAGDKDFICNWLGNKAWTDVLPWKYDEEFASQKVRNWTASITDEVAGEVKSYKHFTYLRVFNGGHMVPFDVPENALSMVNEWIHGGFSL

## nisin leader - I Dha W L V K G R [lysinoalanine-bridged GLP-1 peptide]
Carboxypeptidase Y (cpY)
  protection against carboxypeptidase Y (cpY): resistant
trypsin
  protection against trypsin: resistant
